# Test results reported in ChEMBL document CHEMBL4825762, “Identification, Synthesis, and Characterization of a Major Circulating Human Metabolite of TRPV4 Antagonist GSK2798745” (ACS Med Chem Lett, 2021).
# Calls of active or inactive are those of the source. The rule behind the calls is not given here.
# Legend:
# [1] = target: Transient receptor potential cation channel subfamily V member 4 (Homo sapiens, UniProt Q9HBA0); test: Antagonist activity at human TRPV4
# [2] = Chromatographic hydrophobicity index, log D of the compound; format: physicochemical
# [3] = Permeability of the compound; format: ADME; details: not told; read-out: permeability
# [4] = target: T1, Short transient receptor potential channel 4 (Homo sapiens) (UniProt Q9UBN4); test: Antagonist activity at human TRPC4 at <= 30 uM; details: dose microM <=30
# T1 sequence (whole entry): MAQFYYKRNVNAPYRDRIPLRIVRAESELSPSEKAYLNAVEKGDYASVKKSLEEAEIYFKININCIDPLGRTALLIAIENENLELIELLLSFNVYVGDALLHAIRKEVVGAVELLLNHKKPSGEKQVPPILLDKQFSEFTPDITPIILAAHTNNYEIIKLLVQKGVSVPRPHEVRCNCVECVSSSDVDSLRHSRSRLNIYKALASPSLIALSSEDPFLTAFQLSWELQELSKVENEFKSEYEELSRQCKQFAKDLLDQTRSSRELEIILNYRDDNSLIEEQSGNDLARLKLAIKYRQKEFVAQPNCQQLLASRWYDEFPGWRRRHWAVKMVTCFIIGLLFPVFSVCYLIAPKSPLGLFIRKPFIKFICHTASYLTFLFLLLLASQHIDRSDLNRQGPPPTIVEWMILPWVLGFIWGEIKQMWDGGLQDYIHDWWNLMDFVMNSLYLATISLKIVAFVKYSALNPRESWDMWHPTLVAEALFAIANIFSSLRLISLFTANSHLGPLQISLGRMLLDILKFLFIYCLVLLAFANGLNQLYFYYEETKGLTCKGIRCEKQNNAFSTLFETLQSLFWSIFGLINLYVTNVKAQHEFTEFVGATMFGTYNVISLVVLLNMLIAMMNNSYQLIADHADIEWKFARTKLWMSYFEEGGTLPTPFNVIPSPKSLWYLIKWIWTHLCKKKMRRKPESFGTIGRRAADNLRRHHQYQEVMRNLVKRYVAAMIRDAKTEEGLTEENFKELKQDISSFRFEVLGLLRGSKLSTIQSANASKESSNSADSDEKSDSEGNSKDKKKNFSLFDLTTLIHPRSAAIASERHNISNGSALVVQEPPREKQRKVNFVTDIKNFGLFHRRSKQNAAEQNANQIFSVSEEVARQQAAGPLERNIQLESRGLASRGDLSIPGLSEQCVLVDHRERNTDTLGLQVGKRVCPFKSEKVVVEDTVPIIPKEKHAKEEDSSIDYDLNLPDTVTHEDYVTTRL
# [5] = target: T2, Short transient receptor potential channel 5 (Homo sapiens) (UniProt Q9UL62); test: Antagonist activity at human TRPC5 at <= 30 uM; details: dose microM <=30
# T2 sequence (whole entry): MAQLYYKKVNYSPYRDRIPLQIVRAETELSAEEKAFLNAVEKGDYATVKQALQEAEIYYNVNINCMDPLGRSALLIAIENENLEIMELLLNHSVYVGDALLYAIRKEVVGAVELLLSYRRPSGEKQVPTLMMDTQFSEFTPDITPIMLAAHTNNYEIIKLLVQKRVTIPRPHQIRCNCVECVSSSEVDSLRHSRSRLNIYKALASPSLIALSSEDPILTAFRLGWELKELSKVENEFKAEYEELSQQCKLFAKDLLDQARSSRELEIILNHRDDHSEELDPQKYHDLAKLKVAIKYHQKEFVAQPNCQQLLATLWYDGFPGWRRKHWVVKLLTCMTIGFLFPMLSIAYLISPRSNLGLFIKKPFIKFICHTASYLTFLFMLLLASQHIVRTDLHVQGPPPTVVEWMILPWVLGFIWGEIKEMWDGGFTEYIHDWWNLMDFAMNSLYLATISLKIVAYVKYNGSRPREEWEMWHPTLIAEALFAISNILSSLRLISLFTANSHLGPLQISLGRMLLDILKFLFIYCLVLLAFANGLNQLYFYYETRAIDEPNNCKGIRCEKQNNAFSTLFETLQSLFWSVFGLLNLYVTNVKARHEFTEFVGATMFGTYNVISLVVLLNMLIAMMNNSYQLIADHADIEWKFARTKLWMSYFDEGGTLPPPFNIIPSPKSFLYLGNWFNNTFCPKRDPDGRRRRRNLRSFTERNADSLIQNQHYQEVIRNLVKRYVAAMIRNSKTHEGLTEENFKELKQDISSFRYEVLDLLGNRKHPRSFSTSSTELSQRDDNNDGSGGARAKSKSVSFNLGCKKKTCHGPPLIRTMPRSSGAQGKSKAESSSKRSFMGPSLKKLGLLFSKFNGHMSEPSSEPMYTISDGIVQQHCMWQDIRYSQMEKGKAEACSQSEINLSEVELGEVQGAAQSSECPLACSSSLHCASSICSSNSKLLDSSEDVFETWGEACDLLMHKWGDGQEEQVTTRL
# [6] = target: Transient receptor potential cation channel subfamily A member 1 (Homo sapiens) (UniProt O75762); test: Antagonist activity at human TRPA1 at <= 30 uM; details: dose microM <=30
# [7] = target: Transient receptor potential cation channel subfamily V member 1 (Homo sapiens) (UniProt Q8NER1); test: Antagonist activity at human TRPV1 at <= 30 uM; details: dose microM <=30
# [8] = target: Transient receptor potential cation channel subfamily M member 2 (Homo sapiens) (UniProt O94759); test: Antagonist activity at human TRPM2 at <= 30 uM; details: dose microM <=30
# [9] = target: Transient receptor potential cation channel subfamily M member 4 (Homo sapiens) (UniProt Q8TD43); test: Antagonist activity at human TRPM4 at <= 30 uM; details: dose microM <=30
# [10] = target: Transient receptor potential cation channel subfamily M member 8 (Homo sapiens) (UniProt Q7Z2W7); test: Antagonist activity at human TRPM8 at <= 30 uM; details: dose microM <=30
# [11] = target: T3, Short transient receptor potential channel 3 (Homo sapiens) (UniProt Q13507); test: Antagonist activity at human TRPC3 at <= 30 uM; details: dose microM <=30
# T3 sequence (whole entry): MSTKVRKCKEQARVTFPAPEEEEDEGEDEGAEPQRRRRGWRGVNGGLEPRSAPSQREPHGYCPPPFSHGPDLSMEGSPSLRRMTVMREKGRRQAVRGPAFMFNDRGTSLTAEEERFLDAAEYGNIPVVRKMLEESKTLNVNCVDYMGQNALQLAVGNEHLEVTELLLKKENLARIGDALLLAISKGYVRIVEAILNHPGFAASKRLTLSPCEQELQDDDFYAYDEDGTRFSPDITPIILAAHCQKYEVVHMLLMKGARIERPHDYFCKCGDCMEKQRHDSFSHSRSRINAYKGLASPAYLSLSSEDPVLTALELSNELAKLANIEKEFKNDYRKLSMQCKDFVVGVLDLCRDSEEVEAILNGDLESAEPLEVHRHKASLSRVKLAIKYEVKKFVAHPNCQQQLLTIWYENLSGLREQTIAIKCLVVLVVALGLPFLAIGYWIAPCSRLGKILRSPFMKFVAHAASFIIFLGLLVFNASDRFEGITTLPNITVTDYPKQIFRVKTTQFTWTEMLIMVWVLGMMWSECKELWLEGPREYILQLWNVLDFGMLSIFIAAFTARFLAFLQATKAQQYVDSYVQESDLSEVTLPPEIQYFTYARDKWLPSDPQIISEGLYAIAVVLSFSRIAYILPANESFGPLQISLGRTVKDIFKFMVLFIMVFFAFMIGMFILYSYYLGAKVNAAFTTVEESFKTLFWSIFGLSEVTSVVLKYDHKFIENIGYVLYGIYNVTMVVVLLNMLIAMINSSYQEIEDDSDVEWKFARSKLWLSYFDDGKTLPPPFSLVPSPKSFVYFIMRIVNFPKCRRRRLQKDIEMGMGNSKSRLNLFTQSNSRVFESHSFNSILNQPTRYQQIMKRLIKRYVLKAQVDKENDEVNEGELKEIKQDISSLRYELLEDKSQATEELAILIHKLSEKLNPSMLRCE
# [12] = target: T4, Short transient receptor potential channel 6 (Homo sapiens) (UniProt Q9Y210); test: Antagonist activity at human TRPC6 at <= 30 uM; details: dose microM <=30
# T4 sequence (whole entry): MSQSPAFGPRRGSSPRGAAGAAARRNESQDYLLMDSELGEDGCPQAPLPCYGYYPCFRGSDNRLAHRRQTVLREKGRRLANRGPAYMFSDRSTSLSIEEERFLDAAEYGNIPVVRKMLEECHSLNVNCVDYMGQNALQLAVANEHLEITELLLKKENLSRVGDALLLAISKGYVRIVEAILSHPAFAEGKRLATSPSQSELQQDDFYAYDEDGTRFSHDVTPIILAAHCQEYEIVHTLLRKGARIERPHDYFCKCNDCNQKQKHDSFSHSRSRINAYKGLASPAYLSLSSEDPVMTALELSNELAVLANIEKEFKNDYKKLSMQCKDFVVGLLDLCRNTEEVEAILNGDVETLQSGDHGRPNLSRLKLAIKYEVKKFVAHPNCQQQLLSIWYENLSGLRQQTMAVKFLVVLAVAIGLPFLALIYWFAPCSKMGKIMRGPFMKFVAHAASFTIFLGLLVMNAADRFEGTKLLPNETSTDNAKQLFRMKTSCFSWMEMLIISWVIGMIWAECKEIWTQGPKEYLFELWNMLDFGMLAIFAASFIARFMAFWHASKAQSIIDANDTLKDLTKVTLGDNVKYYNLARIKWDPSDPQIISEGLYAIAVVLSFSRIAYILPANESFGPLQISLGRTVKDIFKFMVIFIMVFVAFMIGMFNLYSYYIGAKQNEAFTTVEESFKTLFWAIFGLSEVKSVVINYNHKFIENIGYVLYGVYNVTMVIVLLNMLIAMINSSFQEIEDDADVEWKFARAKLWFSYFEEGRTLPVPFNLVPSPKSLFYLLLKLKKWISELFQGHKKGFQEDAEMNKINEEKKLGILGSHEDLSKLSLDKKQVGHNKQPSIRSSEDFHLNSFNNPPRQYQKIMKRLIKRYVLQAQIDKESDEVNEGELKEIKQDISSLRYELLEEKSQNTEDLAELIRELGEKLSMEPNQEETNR
# Cytochrome P450 3A4 = Cytochrome P450 3A4 (Homo sapiens, UniProt P08684); test: Inhibition of CYP3A4 (unknown origin) at <= 10 uM; format: ADME
# [13] = target: Voltage-gated inwardly rectifying potassium channel KCNH2 (Homo sapiens, UniProt Q12809); test: Inhibition of human ERG at <= 10 uM
# Sequence of Transient receptor potential cation channel subfamily V member 4 (Q9HBA0 whole entry): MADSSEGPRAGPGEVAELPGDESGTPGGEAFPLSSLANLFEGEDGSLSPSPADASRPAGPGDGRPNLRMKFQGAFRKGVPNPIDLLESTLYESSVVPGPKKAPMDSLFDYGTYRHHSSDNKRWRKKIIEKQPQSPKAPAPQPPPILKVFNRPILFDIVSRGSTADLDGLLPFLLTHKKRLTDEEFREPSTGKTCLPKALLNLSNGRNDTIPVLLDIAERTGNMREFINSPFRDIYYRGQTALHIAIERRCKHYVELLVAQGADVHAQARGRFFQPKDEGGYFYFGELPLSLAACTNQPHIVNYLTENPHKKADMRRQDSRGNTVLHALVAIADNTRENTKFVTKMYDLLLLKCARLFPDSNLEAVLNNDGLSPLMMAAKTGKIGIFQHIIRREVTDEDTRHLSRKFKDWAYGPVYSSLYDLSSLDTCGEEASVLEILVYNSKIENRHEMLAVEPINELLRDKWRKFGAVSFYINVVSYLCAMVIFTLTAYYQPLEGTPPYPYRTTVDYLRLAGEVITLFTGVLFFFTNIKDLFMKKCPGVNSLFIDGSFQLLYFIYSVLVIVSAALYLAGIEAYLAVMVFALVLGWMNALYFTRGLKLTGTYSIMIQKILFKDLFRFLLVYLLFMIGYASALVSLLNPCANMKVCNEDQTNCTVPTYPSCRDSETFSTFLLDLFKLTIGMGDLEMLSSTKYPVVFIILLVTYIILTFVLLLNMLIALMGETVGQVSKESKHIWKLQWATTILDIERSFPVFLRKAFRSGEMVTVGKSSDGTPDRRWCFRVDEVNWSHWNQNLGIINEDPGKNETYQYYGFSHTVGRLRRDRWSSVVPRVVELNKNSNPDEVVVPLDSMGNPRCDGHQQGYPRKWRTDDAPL
# Sequence of Transient receptor potential cation channel subfamily A member 1 (Homo sapiens) (O75762 whole entry): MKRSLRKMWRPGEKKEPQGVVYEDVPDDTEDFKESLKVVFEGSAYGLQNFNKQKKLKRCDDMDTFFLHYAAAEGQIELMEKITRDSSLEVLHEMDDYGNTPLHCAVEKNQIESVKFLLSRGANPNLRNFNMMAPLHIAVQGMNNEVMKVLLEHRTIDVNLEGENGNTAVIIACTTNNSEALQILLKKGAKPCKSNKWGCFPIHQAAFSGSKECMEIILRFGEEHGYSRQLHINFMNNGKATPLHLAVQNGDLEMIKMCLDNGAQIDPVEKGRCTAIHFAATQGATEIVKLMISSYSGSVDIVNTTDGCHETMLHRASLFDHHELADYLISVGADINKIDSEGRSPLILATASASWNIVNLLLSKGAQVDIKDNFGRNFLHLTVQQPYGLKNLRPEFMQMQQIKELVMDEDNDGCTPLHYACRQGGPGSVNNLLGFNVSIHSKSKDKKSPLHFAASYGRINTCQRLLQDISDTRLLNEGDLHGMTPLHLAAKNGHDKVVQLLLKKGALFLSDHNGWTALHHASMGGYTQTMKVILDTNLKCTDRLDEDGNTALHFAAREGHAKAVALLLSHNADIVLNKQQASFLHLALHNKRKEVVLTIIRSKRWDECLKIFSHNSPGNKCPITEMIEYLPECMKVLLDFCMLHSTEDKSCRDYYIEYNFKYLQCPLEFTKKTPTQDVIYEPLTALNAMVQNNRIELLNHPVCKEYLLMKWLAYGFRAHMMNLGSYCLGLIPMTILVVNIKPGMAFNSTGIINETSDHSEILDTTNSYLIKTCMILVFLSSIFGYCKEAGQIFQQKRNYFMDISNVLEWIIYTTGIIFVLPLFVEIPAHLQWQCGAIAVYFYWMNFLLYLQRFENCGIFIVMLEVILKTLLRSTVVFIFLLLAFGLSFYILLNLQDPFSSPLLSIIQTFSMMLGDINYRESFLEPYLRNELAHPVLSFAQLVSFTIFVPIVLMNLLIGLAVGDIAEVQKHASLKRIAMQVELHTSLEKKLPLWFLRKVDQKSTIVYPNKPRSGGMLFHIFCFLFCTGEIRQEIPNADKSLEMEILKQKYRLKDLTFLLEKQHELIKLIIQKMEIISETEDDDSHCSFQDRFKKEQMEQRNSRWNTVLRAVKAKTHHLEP
# Sequence of Transient receptor potential cation channel subfamily M member 4 (Homo sapiens) (Q8TD43 whole entry): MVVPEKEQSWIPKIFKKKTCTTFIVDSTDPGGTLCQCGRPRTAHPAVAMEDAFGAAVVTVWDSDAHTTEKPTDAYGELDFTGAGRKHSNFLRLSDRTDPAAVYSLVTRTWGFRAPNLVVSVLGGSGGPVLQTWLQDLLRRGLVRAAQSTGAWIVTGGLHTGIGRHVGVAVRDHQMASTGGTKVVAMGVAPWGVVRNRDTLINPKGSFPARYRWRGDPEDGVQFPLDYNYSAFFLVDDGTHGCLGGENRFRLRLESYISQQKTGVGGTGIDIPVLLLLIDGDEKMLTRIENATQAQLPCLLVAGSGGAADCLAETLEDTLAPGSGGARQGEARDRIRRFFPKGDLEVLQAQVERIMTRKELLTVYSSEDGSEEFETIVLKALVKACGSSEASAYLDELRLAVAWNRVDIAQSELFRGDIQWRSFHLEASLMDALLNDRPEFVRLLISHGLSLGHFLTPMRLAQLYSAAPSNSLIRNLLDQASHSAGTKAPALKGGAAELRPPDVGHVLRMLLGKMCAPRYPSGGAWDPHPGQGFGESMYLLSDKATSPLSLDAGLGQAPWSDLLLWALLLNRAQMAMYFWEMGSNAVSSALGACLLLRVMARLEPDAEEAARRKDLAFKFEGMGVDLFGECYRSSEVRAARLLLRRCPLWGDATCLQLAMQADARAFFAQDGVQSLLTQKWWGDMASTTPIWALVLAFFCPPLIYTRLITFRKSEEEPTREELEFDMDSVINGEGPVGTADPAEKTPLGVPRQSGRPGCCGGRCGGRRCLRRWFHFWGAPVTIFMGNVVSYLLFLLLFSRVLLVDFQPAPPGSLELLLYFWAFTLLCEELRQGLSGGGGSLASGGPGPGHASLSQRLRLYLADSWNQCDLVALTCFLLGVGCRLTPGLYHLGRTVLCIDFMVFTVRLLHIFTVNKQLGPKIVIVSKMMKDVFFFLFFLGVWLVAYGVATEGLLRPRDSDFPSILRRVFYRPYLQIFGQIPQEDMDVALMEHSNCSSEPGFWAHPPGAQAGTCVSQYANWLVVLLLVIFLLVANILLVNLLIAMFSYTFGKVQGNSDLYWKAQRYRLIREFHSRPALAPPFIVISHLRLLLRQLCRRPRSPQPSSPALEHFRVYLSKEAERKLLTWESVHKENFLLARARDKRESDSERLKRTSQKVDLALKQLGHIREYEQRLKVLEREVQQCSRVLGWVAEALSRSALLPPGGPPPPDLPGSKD
# Sequence of Transient receptor potential cation channel subfamily V member 1 (Homo sapiens) (Q8NER1 whole entry): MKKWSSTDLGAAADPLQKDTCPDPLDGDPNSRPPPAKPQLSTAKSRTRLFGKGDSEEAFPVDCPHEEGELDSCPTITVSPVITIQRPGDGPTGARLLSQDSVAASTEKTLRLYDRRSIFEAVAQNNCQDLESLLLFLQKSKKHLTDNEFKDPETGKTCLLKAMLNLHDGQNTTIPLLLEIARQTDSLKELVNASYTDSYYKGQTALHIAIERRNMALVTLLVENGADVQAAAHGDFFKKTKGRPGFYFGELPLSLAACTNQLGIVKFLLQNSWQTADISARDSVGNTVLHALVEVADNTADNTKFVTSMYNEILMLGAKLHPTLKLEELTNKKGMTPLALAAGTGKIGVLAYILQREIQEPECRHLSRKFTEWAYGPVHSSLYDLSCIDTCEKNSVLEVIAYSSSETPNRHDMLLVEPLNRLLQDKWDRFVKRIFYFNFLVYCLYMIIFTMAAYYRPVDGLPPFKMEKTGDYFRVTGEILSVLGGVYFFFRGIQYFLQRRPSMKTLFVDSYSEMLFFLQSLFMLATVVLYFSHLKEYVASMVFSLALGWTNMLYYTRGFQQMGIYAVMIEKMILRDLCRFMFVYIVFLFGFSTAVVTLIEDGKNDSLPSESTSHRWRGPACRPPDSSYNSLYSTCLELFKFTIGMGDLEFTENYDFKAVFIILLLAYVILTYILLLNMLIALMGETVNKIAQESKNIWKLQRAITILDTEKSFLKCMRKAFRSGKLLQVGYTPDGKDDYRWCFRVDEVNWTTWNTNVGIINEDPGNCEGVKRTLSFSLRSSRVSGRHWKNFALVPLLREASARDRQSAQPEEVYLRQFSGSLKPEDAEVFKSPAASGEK
# Sequence of Cytochrome P450 3A4 (P08684 whole entry): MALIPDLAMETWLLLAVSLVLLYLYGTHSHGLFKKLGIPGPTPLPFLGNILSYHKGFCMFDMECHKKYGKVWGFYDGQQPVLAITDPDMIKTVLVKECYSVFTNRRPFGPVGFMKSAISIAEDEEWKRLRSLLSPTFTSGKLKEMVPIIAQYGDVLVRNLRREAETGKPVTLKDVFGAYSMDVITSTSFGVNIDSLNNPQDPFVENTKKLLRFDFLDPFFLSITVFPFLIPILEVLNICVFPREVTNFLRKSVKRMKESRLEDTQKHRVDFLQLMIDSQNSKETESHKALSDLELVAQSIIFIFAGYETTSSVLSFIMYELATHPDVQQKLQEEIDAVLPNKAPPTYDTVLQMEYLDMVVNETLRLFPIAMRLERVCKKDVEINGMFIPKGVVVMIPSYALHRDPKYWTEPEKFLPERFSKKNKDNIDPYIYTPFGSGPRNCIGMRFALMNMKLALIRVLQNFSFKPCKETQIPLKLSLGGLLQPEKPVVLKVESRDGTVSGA
SMILES,IC50 [1] [nM],chromatographic logD [2],Papp [3] [×10⁻⁶ cm/s],Activity [4],Activity [5],Activity [6],Activity [7],Activity [8],Activity [9],Activity [10],Activity [11],Activity [12],inhibition (INH) (Cytochrome P450 3A4),inhibition (INH) [13]
CC(C)(O)c1cnc(N2C[C@@]3(CCC[C@](C)(Cn4cnc5ccc(C#N)cc54)C3)OC2=O)cn1 [GSK2798745],2,4,38.5,–,–,–,–,–,–,–,–,–,–,–
CC(C)(O)c1cnc(N2C[C@@]3(CC[C@@H](O)[C@](C)(Cn4cnc5ccc(C#N)cc54)C3)OC2=O)cn1,56,2.6,3.2,inactive,inactive,inactive,inactive,inactive,inactive,inactive,inactive,inactive,Not Active,Not Active
